Cytotoxicity data for 40 molecules are collected here from ChEMBL document CHEMBL3507680, “University of Dundee, Gates Library screen for HepG2 cell viability”.

Each structure is given as a SMILES string.

This data set in a line: Human HepG2 cell viability assay in 384 well format. Set-up: dose 125 nL, time 70.5 hour; cytotoxicity at 70.5 h: concentration not given beside the values. Conditions: HepG2 cells, read-out: Inhibition. The data set is classed as toxicity, cell-based.
For `CN(C)C(=O)N1CCC2(CC1)CN(CC1CC1)CC21CCNC1=O` (stereo not given), the cytotoxicity at 70.5 h came to 0.0936%.

As for `Cc1cnn(CC2CN(CC(=O)Nc3ccnn3C(C)C)CCO2)c1` (stereo not given), the cytotoxicity at 70.5 h is -6.91%.

Regarding `COc1cc(N2CCC3(CC(=O)N(Cc4csc(C)n4)C3)C2)ncn1` (stereo not given), the cytotoxicity at 70.5 h is -6.14%.

With `Cn1ncc2c(=O)[nH]c(N3CCCC3c3cccc(Cl)c3)nc21` (stereo not given), the cytotoxicity at 70.5 h was -1.55%.

For the molecule `O=C(NCc1nnc2n1CCC2)N1CCC2(CCCCC2)CC1`, the cytotoxicity at 70.5 h was -12.2%.

As for `CN(C(=O)CN1CCC(c2cc3ccccc3[nH]2)CC1)C1CC1`, the cytotoxicity at 70.5 h is -8.97%.

`Cc1cc2c(cc1NC(=O)NCC(C)C)OCO2`: the cytotoxicity at 70.5 h was -8.91%.

Regarding `CCOc1ncccc1CNC(=O)N1CCCC1c1cccs1` (stereo not given), the cytotoxicity at 70.5 h is -11.7%.

For `Cc1nc(N)nc(C)c1CC(=O)N1CCCCC1c1cccc(F)c1` (stereo not given), the cytotoxicity at 70.5 h was -8.87%.

Consider `CCC(C)(CC(=O)OC)NCc1noc(C)n1` (stereo not given), for which the cytotoxicity at 70.5 h was found to be 26.6%.

On to `CN(Cc1ccc([S+](C)[O-])cc1)c1ccccn1` (stereo not given), for which the cytotoxicity at 70.5 h was -10.9%.

With `c1ccc(OCCNC2=NCCCN2)cc1`, the cytotoxicity at 70.5 h was determined as 24.2%.

With `CN(Cc1cn2c(n1)CN(Cc1nccs1)CC2)Cc1ccco1`, the cytotoxicity at 70.5 h is -7.68%.

In the case of `CC(=O)N1CCN(Cc2ccc(C)o2)CC2(CC(=O)N(C)C2)C1` (stereo not given), the cytotoxicity at 70.5 h is -4.13%.

On to `CC(=O)c1cc(CC(=O)NCc2cccc(F)c2F)cs1`, for which the cytotoxicity at 70.5 h was -8.12%.

Take `COc1ncccc1CN1C[C@H]2CCN(c3ncccn3)C[C@H]2C1`: the cytotoxicity at 70.5 h stood at 1.43%.

With `COCCN1CCCC(O)(CN2CCCN(c3ncccn3)CC2)C1=O` (stereo not given), the cytotoxicity at 70.5 h turned out to be 2.84%.

On to `COCCN(CCOC)C(=O)c1cccc(Cn2nc(C)cc2C)c1`, for which the cytotoxicity at 70.5 h was determined as 0.115%.

Take `CC(=O)N1N=C(c2ccco2)OC1C(=O)NCC(C)C` (stereo not given): the cytotoxicity at 70.5 h is -4.23%.

As for `COc1ccnc(NC2CCN(CC(=O)N3CCCC3)CC2)n1`, the cytotoxicity at 70.5 h is -4.69%.

Regarding `O=C(Cc1cccc(Cl)c1)Nc1cnccc1SCCCO`, the cytotoxicity at 70.5 h was -6.16%.

With `COc1ccc(CCNC(=O)CC(NC(N)=O)c2ccccc2)cc1` (stereo not given), the cytotoxicity at 70.5 h is 14.7%.

As to `Cc1nc2cc(O)nn2c(C)c1CCC(=O)NCCc1ccccc1`, the cytotoxicity at 70.5 h worked out at 10.3%.

As for `CN(Cc1ccncc1)CC(c1cccs1)N1CCOCC1` (stereo not given), the cytotoxicity at 70.5 h came to 36%.

Consider `COc1ccc(OCc2nc(C(=O)N3C[C@H](O)[C@@H](N(C)C)C3)co2)cc1`, for which the cytotoxicity at 70.5 h is -4.57%.

Regarding `CS(=O)(=O)c1cccc(C(N)c2ccc(F)cc2)c1` (stereo not given), the cytotoxicity at 70.5 h is -3.93%.

Consider `CCC1c2ccc(C)n2CCN1C(=O)Cn1cnc2sc(C)cc2c1=O` (stereo not given), for which the cytotoxicity at 70.5 h is -5.17%.

Consider `O=C1CCSCC(C(=O)N2CCCCC2)N1` (stereo not given), for which the cytotoxicity at 70.5 h is -0.797%.

Consider `CNS(=O)(=O)CCCN1CCCN(Cc2ccccc2)CC1C` (stereo not given), for which the cytotoxicity at 70.5 h was found to be 14.3%.

As to `CC(C)N1CCO[C@H]2CN(Cc3cc[nH]n3)C[C@H]21`, the cytotoxicity at 70.5 h was -5.26%.

Regarding `Cc1ccccc1C(=O)N1CC2(COC(C)(C)OC2)C1`, the cytotoxicity at 70.5 h amounted to 9.04%.

Turning to `CCCn1[nH]cc/c1=N\C(=O)CN1CCc2c(nc(C3CC3)n2C)C1`, the cytotoxicity at 70.5 h is -9.16%.

Turning to `Cc1cccc(C(Nc2nccc(C)n2)C2CC2)n1` (stereo not given), the cytotoxicity at 70.5 h was -4.46%.

For `Cc1nccn1CCCn1cncc1-c1ccc2c(c1)CCCN2C`, the cytotoxicity at 70.5 h was -5.52%.

`CC(C)c1cc(N2CCC(N(C)C)C2)n2nccc2n1` (stereo not given): the cytotoxicity at 70.5 h is -8.85%.

`O=C1CC[C@H]2CN(c3ncccc3F)CC[C@H]2N1CCc1ccccc1`: the cytotoxicity at 70.5 h was determined as 17.3%.

For `COCCN(Cc1ccccc1Cl)C(=O)c1c(C)cc(C)[nH]c1=O`, the cytotoxicity at 70.5 h was -2.7%.

For `Cn1ccc2ccnc(CC3CN(C(=O)c4cscn4)C3)c21`, the cytotoxicity at 70.5 h is -2.15%.

Turning to `Cn1cccc1CN(C(=O)Cc1cccs1)C1CC1`, the cytotoxicity at 70.5 h is -2.78%.

In the case of `COc1cc(N2CC[C@H](O)[C@@H]2Cc2ccccc2)ncn1`, the cytotoxicity at 70.5 h worked out at 16.6%.
